# Source: the supplement of paper PMC12463676, “Small-molecule dissolution of stress granules by redox modulation benefits ALS models” (Nature Chemical Biology, 2025)
# Key:
# potassium arsenate = compound: O=[As]([O-])(O)O.[K+] [potassium arsenate]; assay: thermal stability z-score vs DMSO; higher = more thermally stabilized by treatment; conditions: HeLa; arsenate concentration 1 mM
# Experimental: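 Cellular thermal proteome profiling in HeLa cells treated with 1 mM arsenate for 1 h (DMSO pretreatment), heated to ten temperatures (37-66.3 °C). Soluble protein was quantified by TMT mass spectrometry relative to DMSO controls; the thermal stability score was transformed to a z-score; mean of n = 3 experiments.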
# lipoamide = compound: NC(=O)CCCCC1CCSS1 [lipoamide]; assay: as above; conditions: HeLa, lipoamide concentration 100 µM
# Experimental: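 Cellular thermal proteome profiling in HeLa cells. Cells were treated with 100 µM lipoamide for 1 h, with or without 1 mM arsenate for a further 1 h, then heated to ten temperatures (37-66.3 °C), and soluble protein was quantified by TMT mass spectrometry relative to 0.1% DMSO controls. The thermal stability score (sum of log2 fold changes minus the abundance score) was transformed to a z-score; mean of n = 3 experiments.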
# [1] = arsenate co-treatment: 1 mM arsenate 1 h
# 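Further: each temperature applied for 3 min, abundance score taken as mean log2 fold change at the two lowest temperatures, z-score obtained by mean subtraction and division by SD.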
# Sequence of UniProt Q5T0W9 (Q5T0W9 whole entry): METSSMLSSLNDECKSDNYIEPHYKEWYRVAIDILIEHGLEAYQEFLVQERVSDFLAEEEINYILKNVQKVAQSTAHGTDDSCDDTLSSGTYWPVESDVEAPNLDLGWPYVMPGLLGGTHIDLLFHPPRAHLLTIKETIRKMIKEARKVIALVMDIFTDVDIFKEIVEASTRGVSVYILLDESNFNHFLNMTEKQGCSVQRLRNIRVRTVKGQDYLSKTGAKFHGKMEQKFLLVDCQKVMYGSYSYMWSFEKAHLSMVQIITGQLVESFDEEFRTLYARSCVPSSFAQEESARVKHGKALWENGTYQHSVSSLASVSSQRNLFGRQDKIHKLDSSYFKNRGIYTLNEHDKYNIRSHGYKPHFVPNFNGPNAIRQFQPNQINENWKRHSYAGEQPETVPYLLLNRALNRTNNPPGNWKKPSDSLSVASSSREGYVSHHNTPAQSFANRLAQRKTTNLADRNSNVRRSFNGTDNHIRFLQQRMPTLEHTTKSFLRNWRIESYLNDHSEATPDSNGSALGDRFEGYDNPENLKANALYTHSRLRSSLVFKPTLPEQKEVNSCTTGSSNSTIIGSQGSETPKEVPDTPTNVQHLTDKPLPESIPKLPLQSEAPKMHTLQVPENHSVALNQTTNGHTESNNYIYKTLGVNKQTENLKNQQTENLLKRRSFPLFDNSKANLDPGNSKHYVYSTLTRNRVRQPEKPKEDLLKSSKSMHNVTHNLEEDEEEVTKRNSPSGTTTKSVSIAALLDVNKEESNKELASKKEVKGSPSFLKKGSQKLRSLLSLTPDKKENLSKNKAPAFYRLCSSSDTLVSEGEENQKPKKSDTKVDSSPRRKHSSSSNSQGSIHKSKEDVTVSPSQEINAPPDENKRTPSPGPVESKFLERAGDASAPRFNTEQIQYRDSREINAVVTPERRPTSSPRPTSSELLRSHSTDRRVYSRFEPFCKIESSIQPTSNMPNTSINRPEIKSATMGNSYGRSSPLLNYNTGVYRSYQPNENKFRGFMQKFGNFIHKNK
# Sequence of UniProt P98173 (P98173 whole entry): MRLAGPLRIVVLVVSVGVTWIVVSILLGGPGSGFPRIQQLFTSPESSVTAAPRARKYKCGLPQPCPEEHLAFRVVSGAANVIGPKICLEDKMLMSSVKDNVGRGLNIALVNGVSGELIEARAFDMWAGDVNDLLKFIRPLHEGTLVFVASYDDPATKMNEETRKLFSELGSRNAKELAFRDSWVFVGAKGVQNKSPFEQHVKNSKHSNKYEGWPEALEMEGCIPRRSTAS
# Sequence of UniProt Q15024 (Q15024 whole entry): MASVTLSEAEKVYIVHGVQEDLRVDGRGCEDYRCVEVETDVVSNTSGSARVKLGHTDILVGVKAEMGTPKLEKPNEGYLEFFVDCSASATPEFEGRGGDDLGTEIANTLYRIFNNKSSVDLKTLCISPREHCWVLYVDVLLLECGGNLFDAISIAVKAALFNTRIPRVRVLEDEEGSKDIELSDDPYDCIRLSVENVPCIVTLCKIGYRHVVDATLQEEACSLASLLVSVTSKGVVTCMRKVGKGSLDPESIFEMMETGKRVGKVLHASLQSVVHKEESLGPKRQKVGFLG
# Sequence of UniProt Q9BZQ8 (Q9BZQ8 whole entry): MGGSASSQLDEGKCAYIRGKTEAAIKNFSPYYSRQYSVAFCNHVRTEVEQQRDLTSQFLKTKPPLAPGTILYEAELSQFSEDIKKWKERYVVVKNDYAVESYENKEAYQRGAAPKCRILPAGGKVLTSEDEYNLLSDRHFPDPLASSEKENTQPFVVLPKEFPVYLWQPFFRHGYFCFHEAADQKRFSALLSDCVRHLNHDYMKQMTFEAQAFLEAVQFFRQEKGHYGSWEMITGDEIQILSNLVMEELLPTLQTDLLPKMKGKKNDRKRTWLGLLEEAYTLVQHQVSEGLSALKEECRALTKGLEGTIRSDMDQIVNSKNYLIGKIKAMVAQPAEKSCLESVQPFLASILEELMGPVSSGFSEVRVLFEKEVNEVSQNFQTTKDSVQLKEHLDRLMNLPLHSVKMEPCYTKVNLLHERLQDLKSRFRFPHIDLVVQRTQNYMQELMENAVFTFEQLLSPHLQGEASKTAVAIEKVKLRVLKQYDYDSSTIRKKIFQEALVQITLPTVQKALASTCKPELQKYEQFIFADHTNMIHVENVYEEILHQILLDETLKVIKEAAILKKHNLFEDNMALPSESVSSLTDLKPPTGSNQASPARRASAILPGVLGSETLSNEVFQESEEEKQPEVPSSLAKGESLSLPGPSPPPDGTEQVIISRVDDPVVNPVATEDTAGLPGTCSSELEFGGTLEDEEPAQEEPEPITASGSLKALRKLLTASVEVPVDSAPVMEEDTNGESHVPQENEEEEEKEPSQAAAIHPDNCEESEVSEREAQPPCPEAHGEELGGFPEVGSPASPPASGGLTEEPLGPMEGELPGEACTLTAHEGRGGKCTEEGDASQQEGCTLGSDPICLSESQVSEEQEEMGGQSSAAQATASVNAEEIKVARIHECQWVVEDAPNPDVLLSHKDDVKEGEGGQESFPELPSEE
# Sequence of UniProt Q86VR2 (Q86VR2 whole entry): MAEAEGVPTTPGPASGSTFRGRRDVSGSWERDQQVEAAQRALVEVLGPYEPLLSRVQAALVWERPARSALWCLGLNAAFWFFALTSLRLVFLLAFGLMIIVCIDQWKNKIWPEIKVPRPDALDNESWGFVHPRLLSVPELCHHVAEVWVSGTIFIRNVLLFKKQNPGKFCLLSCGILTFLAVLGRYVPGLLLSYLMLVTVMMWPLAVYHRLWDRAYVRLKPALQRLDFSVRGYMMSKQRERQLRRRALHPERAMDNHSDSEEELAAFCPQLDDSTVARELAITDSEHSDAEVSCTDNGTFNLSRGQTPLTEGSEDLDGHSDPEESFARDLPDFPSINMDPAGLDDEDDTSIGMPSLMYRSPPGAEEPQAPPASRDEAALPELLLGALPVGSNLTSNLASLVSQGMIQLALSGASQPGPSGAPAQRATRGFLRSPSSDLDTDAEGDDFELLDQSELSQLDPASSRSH
# Sequence of UniProt A6ND36 (A6ND36 whole entry): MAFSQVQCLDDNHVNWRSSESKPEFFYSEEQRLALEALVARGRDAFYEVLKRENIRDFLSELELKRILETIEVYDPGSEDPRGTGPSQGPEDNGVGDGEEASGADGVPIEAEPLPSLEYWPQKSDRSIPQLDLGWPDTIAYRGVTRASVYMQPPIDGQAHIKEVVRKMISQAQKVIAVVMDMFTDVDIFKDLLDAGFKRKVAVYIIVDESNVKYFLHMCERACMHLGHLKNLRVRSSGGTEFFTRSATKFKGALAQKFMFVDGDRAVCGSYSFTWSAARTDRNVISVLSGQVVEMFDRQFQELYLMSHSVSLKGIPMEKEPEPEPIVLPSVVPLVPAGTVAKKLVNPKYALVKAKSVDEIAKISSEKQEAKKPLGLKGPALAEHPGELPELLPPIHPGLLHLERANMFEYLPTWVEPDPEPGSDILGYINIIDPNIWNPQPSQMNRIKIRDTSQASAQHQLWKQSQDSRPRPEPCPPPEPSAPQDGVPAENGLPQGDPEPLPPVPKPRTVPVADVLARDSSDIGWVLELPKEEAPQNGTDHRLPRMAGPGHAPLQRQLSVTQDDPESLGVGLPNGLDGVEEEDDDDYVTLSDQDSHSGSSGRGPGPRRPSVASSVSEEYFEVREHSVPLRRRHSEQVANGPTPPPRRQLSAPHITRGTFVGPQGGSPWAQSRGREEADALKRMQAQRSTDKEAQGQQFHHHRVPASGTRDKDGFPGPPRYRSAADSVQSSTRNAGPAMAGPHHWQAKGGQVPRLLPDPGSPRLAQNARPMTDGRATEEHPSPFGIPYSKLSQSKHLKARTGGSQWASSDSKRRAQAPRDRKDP
# Sequence of UniProt Q9H5X1 (Q9H5X1 whole entry): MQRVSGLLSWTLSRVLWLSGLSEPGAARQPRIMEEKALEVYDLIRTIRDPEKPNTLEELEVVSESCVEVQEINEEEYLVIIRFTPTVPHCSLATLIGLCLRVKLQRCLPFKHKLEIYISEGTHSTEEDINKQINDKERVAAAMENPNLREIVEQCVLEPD
# Sequence of UniProt Q7Z309 (Q7Z309 whole entry): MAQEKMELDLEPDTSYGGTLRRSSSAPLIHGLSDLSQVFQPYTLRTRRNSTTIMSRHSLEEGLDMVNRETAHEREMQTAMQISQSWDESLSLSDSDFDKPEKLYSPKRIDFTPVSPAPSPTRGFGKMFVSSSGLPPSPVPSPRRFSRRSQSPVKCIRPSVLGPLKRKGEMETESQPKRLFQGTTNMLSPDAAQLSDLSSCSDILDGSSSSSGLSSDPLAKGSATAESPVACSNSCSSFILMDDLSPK
# Sequence of UniProt Q9NUU6 (Q9NUU6 whole entry): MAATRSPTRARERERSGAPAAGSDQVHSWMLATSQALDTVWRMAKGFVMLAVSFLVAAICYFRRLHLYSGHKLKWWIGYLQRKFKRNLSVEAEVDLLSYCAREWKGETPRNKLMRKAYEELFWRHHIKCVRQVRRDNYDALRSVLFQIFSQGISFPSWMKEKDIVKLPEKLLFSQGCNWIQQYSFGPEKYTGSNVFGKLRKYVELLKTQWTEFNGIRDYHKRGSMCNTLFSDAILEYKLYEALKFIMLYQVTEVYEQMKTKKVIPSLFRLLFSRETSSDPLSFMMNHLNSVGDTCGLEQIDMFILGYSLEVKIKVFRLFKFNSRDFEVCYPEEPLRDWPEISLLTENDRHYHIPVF
# Sequence of UniProt Q96GK7 (Q96GK7 whole entry): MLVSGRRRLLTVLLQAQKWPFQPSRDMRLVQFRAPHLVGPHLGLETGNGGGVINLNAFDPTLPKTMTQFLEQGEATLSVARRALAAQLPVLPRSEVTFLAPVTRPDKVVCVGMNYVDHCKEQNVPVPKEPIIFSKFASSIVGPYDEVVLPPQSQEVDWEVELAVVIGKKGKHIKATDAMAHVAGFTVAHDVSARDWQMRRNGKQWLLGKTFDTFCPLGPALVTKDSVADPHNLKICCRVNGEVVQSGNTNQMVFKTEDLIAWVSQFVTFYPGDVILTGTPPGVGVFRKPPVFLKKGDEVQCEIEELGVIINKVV
# Sequence of UniProt Q96C01 (Q96C01 whole entry): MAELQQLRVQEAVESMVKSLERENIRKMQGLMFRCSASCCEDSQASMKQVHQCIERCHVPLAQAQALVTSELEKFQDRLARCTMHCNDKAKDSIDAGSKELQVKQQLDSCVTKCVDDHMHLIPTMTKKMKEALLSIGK
Target,thermal stability z-score (potassium arsenate),thermal stability z-score (lipoamide; [1]),thermal stability z-score (lipoamide; arsenate co-treatment: none)
EXOSC6 (UniProt Q5RKV6),-1.85,0.123,0.0946
EXOSC7 (UniProt Q15024),-1.11,0.482,0.0621
EXOSC8 (UniProt Q96B26),-0.573,0.692,-0.359
EXOSC9 (UniProt Q06265),-1.59,0.0277,-1.24
EXOSC10 (UniProt Q01780),-0.437,0.0236,-0.0314
EXT2 (UniProt Q93063),-0.573,-1.16,-0.953
EXTL2 (UniProt Q9UBQ6),0.453,1.05,0.893
EYA4 (UniProt O95677),0.168,0.0211,-0.116
EZH2 (UniProt Q15910),-0.158,-0.0218,-0.132
EZR (UniProt P15311),-0.481,1.01,0.661
F11R (UniProt Q9Y624),0.151,0.865,0.653
FA2H (UniProt Q7L5A8),-0.327,-0.355,0.132
FAAP100 (UniProt Q0VG06),-0.167,0.0838,-0.0268
FADD (UniProt Q13158),0.325,-0.805,0.901
FADS1 (UniProt O60427),0.226,0.469,0.181
FADS3 (UniProt Q9Y5Q0),-0.618,-0.431,0.482
FAF1 (UniProt Q9UNN5),0.738,0.777,0.869
FAF2 (UniProt Q96CS3),-0.262,-0.435,-0.684
FAH (UniProt P16930),-0.623,0.241,-0.125
FAHD1 (UniProt Q6P587),0.21,0.565,0.339
FAHD2A (UniProt Q96GK7),-0.0563,0.146,-0.0859
FAIM (UniProt Q9NVQ4),0.336,1.03,0.411
FAM3A (UniProt P98173),0.363,0.0593,-0.109
FAM3C (UniProt Q92520),0.805,-1.06,-0.89

Target,thermal stability z-score (potassium arsenate),thermal stability z-score (lipoamide; [1]),thermal stability z-score (lipoamide; arsenate co-treatment: none)
FAM8A1 (UniProt Q9UBU6),-0.315,-0.425,-0.579
FAM20B (UniProt O75063),0.335,-1.35,-1.05
FAM21A (UniProt Q641Q2),0.352,0.0165,-0.365
FAM21C (UniProt Q9Y4E1),0.0902,0.0661,0.32
FAM32A (UniProt Q9Y421),0.375,0.832,0.827
FAM45BP|FAM45A,1.44,0.335,1.28
FAM46A (UniProt Q96IP4),-0.0735,-0.0743,0.0046
FAM49B (UniProt Q9NUQ9),0.0541,0.4,0.0941
FAM50A (UniProt Q14320),0.455,-0.0555,0.352
FAM60A (UniProt Q9NP50),-0.681,0.0806,0.262
FAM65A (UniProt Q6ZS17),-0.0314,0.215,0.0539
FAM73A (UniProt Q8NAN2),0.164,-0.106,0.0979
FAM83B (UniProt Q5T0W9),-2.02,-0.567,-0.89
FAM83D (UniProt Q9H4H8),0.641,-0.472,-0.432
FAM83G (UniProt A6ND36),0.138,-0.123,0.00979
FAM83H (UniProt Q6ZRV2),0.0326,-0.0915,0.0556
FAM91A1 (UniProt Q658Y4),-0.0432,-0.0432,-0.00182
FAM96A (UniProt Q9H5X1),-1.34,-0.0873,-0.652
FAM96B (UniProt Q9Y3D0),-0.128,-0.113,-0.0578
FAM98A (UniProt Q8NCA5),-1.6,-0.444,-0.673
FAM98B (UniProt Q52LJ0),-1.01,0.052,-0.438
FAM103A1 (UniProt Q9BTL3),-0.0441,1.17,0.62
FAM105A (UniProt Q9NUU6),0.337,-0.00141,-0.0135
FAM107B (UniProt Q9H098),0.327,-0.0721,0.629

Target,thermal stability z-score (potassium arsenate),thermal stability z-score (lipoamide; [1]),thermal stability z-score (lipoamide; arsenate co-treatment: none)
FAM111B (UniProt Q6SJ93),9.3,4.69,1.31
FAM114A1 (UniProt Q8IWE2),0.106,-0.474,-0.338
FAM114A2 (UniProt Q9NRY5),0.222,-0.354,-0.328
FAM117B (UniProt Q6P1L5),0.314,-1.14,0.461
FAM118B (UniProt Q9BPY3),0.57,0.49,-0.244
FAM120A (UniProt Q9NZB2),0.686,-0.00535,-0.0221
FAM120B (UniProt Q96EK7),-0.081,0.0177,-0.0542
FAM120C (UniProt Q9NX05),-0.296,-0.0604,-0.0122
FAM122B (UniProt Q7Z309),-0.217,-0.0455,-0.144
FAM129A (UniProt Q9BZQ8),0.444,-0.167,-0.0302
FAM129B (UniProt Q96TA1),-1.01,0.659,0.517
FAM134A (UniProt Q8NC44),-0.162,0.119,-0.141
FAM134C (UniProt Q86VR2),1.35,0.622,-0.494
FAM136A (UniProt Q96C01),-1.98,1.12,0.665
FAM160B1 (UniProt Q5W0V3),-1.49,-0.512,-0.179
FAM162A (UniProt Q96A26),-0.244,0.884,0.302
FAM172A (UniProt Q8WUF8),0.275,0.954,0.472
FAM173A (UniProt Q9BQD7),-0.445,-0.403,-0.6
FAM173B (UniProt Q6P4H8),-0.0461,-0.478,1.31
FAM174A (UniProt Q8TBP5),1.14,0.351,0.647
FAM175B (UniProt Q15018),-0.57,0.515,0.293
FAM177A1 (UniProt Q8N128),1.04,-0.313,-0.584
FAM188A (UniProt Q9H8M7),1.07,0.53,0.885
